Source: US20240360114A1 (SIRONAX LTD., priority 2021, published 2024)

System: HT-1080 cells
Experiment: HT-1080 cell viability assay (ferroptosis induced by RSL3, Cell Titer-Glo)
Format: cell-based
Conditions: Homo sapiens, HT-1080, 20 h, ferroptosis inducer RSL3, 20 hours, ferroptosis inhibitory activity, Table 2
In short: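 EC50 fitted by sigmoidal dose-response regression on luminescent viability data normalized to untreated cells. Compounds ran as a 10-point, 3-fold series from 1.1 μM alongside RSL3 for 20 hours, after overnight seeding.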

SMILES | EC50
C[C@H]1CN(c2ccc(NC[C@H]3CC[C@H](N)CC3)cc2F)C[C@H](C)O1 [Compound 478, N-(((1r,4S)-4-aminocyclohexyl)methyl)-4-((2S,6S)-2,6-dimethylmorpholino)-3-fluoroaniline] | 0.1 to 100 nM
Cc1nc(N2C[C@H](C)O[C@@H](C)C2)ccc1NC1CC2(CC(N)C2)C1 (stereo partly drawn) [Compound 479, N2-(6-((2S,6S)-2,6-dimethylmorpholino)-2-methylpyridin-3-yl)spiro[3.3]heptane-2,6-diamine] | 0.1 to 100 nM
CC1CN(c2cc(F)c(NC[C@H]3CC[C@H](N)CC3)cc2F)CC(C)O1 (stereo partly drawn) [Compound 481, N-(((1r,4r)-4-aminocyclohexyl)methyl)-4-(2,6-dimethylmorpholino)-2,5-difluoroaniline] | 100 to 1000 nM
Cc1cc(N2CC3(COC3)C2)ccc1NC1CC2(CC(N)C2)C1 (stereo not drawn) [Compound 482, N2-(2-methyl-4-(2-oxa-6-azaspiro[3.3]heptan-6-yl)phenyl)spiro[3.3]heptane-2,6-diamine] | 0.1 to 100 nM
CC1CN(c2ccc(NC[C@H]3CC[C@H](N)CC3)c(Cl)c2)CC(C)O1 (stereo partly drawn) [Compound 483, N-(((1r,4r)-4-aminocyclohexyl)methyl)-2-chloro-4-(2,6-dimethylmorpholino) aniline] | 0.1 to 100 nM
CC1CN(c2ccc(NC[C@H]3CC[C@H](N)CC3)c(C#N)c2)CC(C)O1 (stereo partly drawn) [Compound 484, 2-((((1r,4r)-4-aminocyclohexyl)methyl)amino)-5-(2,6-dimethylmorpholino) benzonitrile] | 1000 to 10000 nM
NC1CCC(Nc2ccc(N3CCC(C(F)(F)F)CC3)cc2OCCO)CC1 (stereo not drawn) [Compound 485, 2-(2-((4-aminocyclohexyl)amino)-5-(4-(trifluoromethyl)piperidin-1-yl)phenoxy) ethan-1-ol] | 0.1 to 100 nM
Cc1nc(N2CC3CCC(C2)O3)ccc1NC1CC2(CC(N)C2)C1 (stereo not drawn) [Compound 486, N2-(6-(8-oxa-3-azabicyclo[3.2.1]octan-3-yl)-2-methylpyridin-3-yl)spiro[3.3]heptane-2,6-diamine] | 0.1 to 100 nM
Cc1cc(N2C[C@@H](C)O[C@@H](C)C2)ncc1NC1CC2(CC(N)C2)C1 (stereo partly drawn) [Compound 487, N2-(6-((2S,6R)-2,6-dimethylmorpholino)-4-methylpyridin-3-yl)spiro[3.3]heptane-2,6-diamine] | 100 to 1000 nM
Cc1nc(N2C[C@@H](C)O[C@@H](C)C2)ccc1NC1CC2(CC(N)C2)C1 (stereo partly drawn) [Compound 488A, N2-(6-(2,6-dimethylmorpholino)-2-methylpyridin-3-yl)spiro[3.3]heptane-2,6-diamine] | 0.1 to 100 nM
Cc1cc(NC2CC(C(=O)NN)C2)ccc1N1CCC(C)CC1 (stereo not drawn) [Compound 489] | 0.1 to 100 nM
Cc1nc(N2CC(C)OC(C)C2)ccc1NCCC1CCC(N)C1 (stereo not drawn) [Compound 490, N-(2-(3-aminocyclopentyl)ethyl)-6-(2,6-dimethylmorpholino)-2-methylpyridin-3-amine] | 0.1 to 100 nM
Cc1nc(N2CC3CCC2CO3)ccc1NC1CC2(CC(N)C2)C1 (stereo not drawn) [Compound 491, N2-(6-(2-oxa-5-azabicyclo[2.2.2]octan-5-yl)-2-methylpyridin-3-yl)spiro[3.3]heptane-2,6-diamine] | 0.1 to 100 nM
Cc1cc(NC2CCCCC2C(N)=O)ccc1N1CCC(C)CC1 (stereo not drawn) [Compound 492, 2-((3-methyl-4-(4-methylpiperidin-1-yl)phenyl)amino)cyclohexane-1-carboxamide] | 0.1 to 100 nM
Cc1nc(N2CC(C)N(CC(F)(F)F)C(C)C2)ccc1NC1CC2(CC(N)C2)C1 (stereo not drawn) [Compound 493, N2-(6-(3,5-dimethyl-4-(2,2,2-trifluoroethyl)piperazin-1-yl)-2-methylpyridin-3-yl)spiro[3.3]heptane-2,6-diamine] | 0.1 to 100 nM
Cc1nc(N2CC3(CCOCC3)C2)ccc1NC1CC2(CC(N)C2)C1 (stereo not drawn) [Compound 494, N2-(2-methyl-6-(7-oxa-2-azaspiro[3.5]nonan-2-yl)pyridin-3-yl)spiro[3.3]heptane-2,6-diamine] | 100 to 1000 nM
COc1cc(NC[C@H]2CC[C@H](N)CC2)ccc1N1C[C@@H](C)O[C@@H](C)C1 [Compound 495, N-(((1r,4R)-4-aminocyclohexyl)methyl)-4-((2S,6R)-2,6-dimethylmorpholino)-3-methoxyaniline] | 100 to 1000 nM
COc1cc(N2CC(C)OC(C)C2)ccc1NC[C@H]1CC[C@H](N)CC1 (stereo partly drawn) [Compound 497, N-(((1r,4r)-4-aminocyclohexyl)methyl)-4-(2,6-dimethylmorpholino)-2-methoxyaniline] | 0.1 to 100 nM
COC1(C(F)(F)F)CCN(c2ccc(NC3CC4(CC(N)C4)C3)c(C)n2)CC1 (stereo not drawn) [Compound 498, N2-(6-(4-methoxy-4-(trifluoromethyl)piperidin-1-yl)-2-methylpyridin-3-yl)spiro[3.3]heptane-2,6-diamine] | 0.1 to 100 nM
Cc1nc(N2CCCOCC2)ccc1NC1CC2(CC(N)C2)C1 (stereo not drawn) [Compound 499, N2-(2-methyl-6-(1,4-oxazepan-4-yl)pyridin-3-yl)spiro[3.3]heptane-2,6-diamine] | 100 to 1000 nM

SMILES | EC50
CC[C@@H]1CN(c2ccc(NC[C@H]3CC[C@H](N)CC3)c(C)n2)C[C@H](CC)O1 [Compound 500, N-(((1r,4R)-4-aminocyclohexyl)methyl)-6-((2R,6S)-2,6-diethylmorpholino)-2-methylpyridin-3-amine] | 0.1 to 100 nM
COc1cc(N2C[C@@H](C)O[C@@H](C)C2)ncc1NC1CC2(CC(N)C2)C1 (stereo partly drawn) [Compound 501, N^2-(6-((2R,6S)-2,6-dimethylmorpholino)-4-methoxypyridin-3-yl)spiro[3.3]heptane-2,6-diamine] | 1000 to 10000 nM
NC[C@@H]1CCC(Nc2ccc(N3CCC(C(F)(F)F)CC3)cc2)[C@@H](N)C1 (stereo partly drawn) [Compound 503, (2S, 4R)-4-(aminomethyl)-N1-(4-(4-(trifluoromethyl)piperidin-1-yl)phenyl)cyclohexane-1,2-dia mine bis(2,2,2-trifluoroacetate)] | 0.1 to 100 nM
Cc1nc(N2CC(C)OC(C)C2)ccc1NC1CC2CC1CC2N (stereo not drawn) [Compound 504, N2-(6-(2,6-dimethylmorpholino)-2-methylpyridin-3-yl)bicyclo[2.2.1]heptane-2,5-diamine] | 0.1 to 100 nM
NC1CC2(C1)CC(Nc1ccc(N3CCN(CC(F)(F)F)CC3)cc1)C2 (stereo not drawn) [Compound 505, N2-(4-(4-(2,2,2-trifluoroethyl)piperazin-1-yl)phenyl)spiro[3.3]heptane-2,6-diamine] | 0.1 to 100 nM
CC(C)(C)OC(=O)N[C@H]1CC[C@H](CNc2ccc(N3CC4CC(C3)O4)c(F)c2)CC1 [Compound 506, tert-butyl ((1r,4r)-4-(((4-(6-oxa-3-azabicyclo[3.1.1]heptan-3-yl)-3-fluorophenyl)amino)methyl)cyclohexyl) carbamate] | 0.1 to 100 nM
Cc1nc(N2CCC3(CCOCC3)C2)ccc1NC1CC2(CC(N)C2)C1 (stereo not drawn) [Compound 507, N2-(2-methyl-6-(8-oxa-2-azaspiro[4.5]decan-2-yl)pyridin-3-yl)spiro[3.3]heptane-2,6-diamine] | 100 to 1000 nM
Cc1nc(N2CC[C@H]3OCCC[C@@H]3C2)ccc1NC1CC2(CC(N)C2)C1 (stereo partly drawn) [Compound 508, N2-(6-((4aR,8aR)-hexahydro-2H-pyrano [3,2-c]pyridin-6 (5H)-yl)-2-methylpyridin-3-yl)spiro[3. 3]heptane-2,6-diamine] | 0.1 to 100 nM
Cc1nc(N2CCC3(CCCCO3)CC2)ccc1NC1CC2(CC(N)C2)C1 (stereo not drawn) [Compound 509, N2-(2-methyl-6-(1-oxa-9-azaspiro [5.5]undecan-9-yl)pyridin-3-yl)spiro[3.3]heptane-2,6-diamine] | 0.1 to 100 nM
COC1(C(F)(F)F)CCN(c2ccc(NC[C@H]3CC[C@H](N)CC3)c(C)n2)CC1 [Compound 510, N-(((1r,4r)-4-aminocyclohexyl)methyl)-6-(4-methoxy-4-(trifluoromethyl)piperidin-1-yl)-2-methylpyridin-3-amine] | 0.1 to 100 nM
COc1nc(N2C[C@@H](C)O[C@@H](C)C2)ccc1NC[C@H]1CC[C@H](N)CC1 [Compound 511, N-(((1r,4R)-4-aminocyclohexyl)methyl)-6-((2S,6R)-2,6-dimethylmorpholino)-2-methoxypyridin-3-amine] | 0.1 to 100 nM
Cc1nc(N2CC(C)OC(C)C2)ccc1NCC1CC2(CC(N)C2)C1 (stereo not drawn) [Compound 512, N-((6-aminospiro [3.3]heptan-2-yl)methyl)-6-(2,6-dimethylmorpholino)-2-methylpyridin-3-amine] | 0.1 to 100 nM
CC1(C)CN(c2ccc(NC[C@H]3CC[C@H](N)CC3)cc2F)CC(C)(C)O1 [Compound 513, N-(((1r,4r)-4-aminocyclohexyl)methyl)-3-fluoro-4-(2,2,6,6-tetramethylmorpholino)aniline] | 0.1 to 100 nM
Cc1nc(N2CC(C)(C)OC(C)(C)C2)ccc1NC[C@H]1CC[C@H](N)CC1 [Compound 514, N-(((1r,4r)-4-aminocyclohexyl)methyl)-2-methyl-6-(2,2,6,6-tetramethylmorpholino)pyridin-3-amine] | 0.1 to 100 nM
Cc1nc(N2CC(C)(C)OC(C)(C)C2)ccc1NC1CC2(CC(N)C2)C1 (stereo not drawn) [Compound 515, N2-(2-methyl-6-(2,2,6,6-tetramethylmorpholino)pyridin-3-yl)spiro[3.3]heptane-2,6-diamine] | 0.1 to 100 nM
Cc1nc(N2CC(C)OC(C)C2)ccc1NCC12CC3CC(C1)C(N)C(C3)C2 (stereo not drawn) [Compound 516A, N-(((1s,4r)-4-aminoadamantan-1-yl)methyl)-6-(2,6-dimethylmorpholino)-2-methylpyridin-3-amine] | 0.1 to 100 nM
Cc1nc(N2CCOCC2)ccc1NC1C2CC3CC1CC(N)(C3)C2 (stereo not drawn) [Compound 517, N4-(2-methyl-6-morpholinopyridin-3-yl)adamantane-1,4-diamine] | 100 to 1000 nM
Cc1nc(N2CCOC(C)C2)ccc1NC1C2CC3CC1CC(N)(C3)C2 (stereo not drawn) [Compound 518, N4-(2-methyl-6-(2-methylmorpholino)pyridin-3-yl)adamantane-1,4-diamine] | 0.1 to 100 nM
Cc1nc(N2CC(C)OC(C)C2)c(F)cc1NC1C2CC3CC1CC(N)(C3)C2 (stereo not drawn) [Compound 519, N4-(6-(2,6-dimethylmorpholino)-5-fluoro-2-methylpyridin-3-yl)adamantane-1,4-diamine] | 0.1 to 100 nM
